Test system: OCI-Ly1
Assay: Tumor growth of DLBCL cell line derived xenograft model OCI-Ly1
Assay type: in vivo, mice
Settings: BCL6 sensitive tumor xenograft model (OCI-Ly1), 10 mg/kg BID
Method: Mice bearing subcutaneous tumors were orally (po) administered vehicle or Compound A at 1, 3, 10, or 30 mg/kg daily for 22 days (qd×22). Dosing began with tumors at an average of 140 mm^3. […] Statistical analyses were performed using 2-way ANOVA: p<0.0001 (****). Error bars represent standard error of the mean (±SEM).
Mice bearing subcutaneous tumors were orally (po) administered vehicle or Compound A at 1, 3, or 10 mg/kg bi-daily for 23 days (bid×23). Dosing began with tumors at an average of 170 mm^3. […] FIG. 7C depicts tumor lysate BCL6 protein levels 16-hours post-last dose analyzed by western blotting. Individual tumor BCL6 levels are shown in a scatter plot, mean is represented by the bar, determined by densitometry, normalized to GAPDH loading controls, and shown as a percentage of vehicle. Percent BCL6 degradation (%) relative to vehicle is shown above each arm. Statistical analyses were performed using 2-way ANOVA: p<0.0001 (****). Error bars represent standard error of the mean (±SEM).

| Structure (SMILES) | Ly-1 TGI @ 10 mg/kg (BID) [%] |
| --- | --- |
| CNC(=O)COc1cc2cc(Nc3nc(N4CCC(O[C@H]5C[C@H](N6CCC(c7ccc8c(c7F)CN(C7CCC(=O)NC7=O)C8=O)CC6)C5)CC4)ncc3Cl)ccc2n(C(C)C)c1=O (some centres unmarked) [Compound 81, 2-({6-[(5-chloro-2-{4-[(1r,3r)-3-{4-[2-(2,6-dioxopiperidin-3-yl)-4-fluoro-1-oxo-2,3-dihydro-1H-isoindol-5-yl]piperidin-1-yl}cyclobutoxy]piperidin-1-yl}pyrimidin-4-yl)amino]-2-oxo-1-(propan-2-yl)-1,2-dihydroquinolin-3-yl}oxy)-N-methylacetamide] | 100 |
| CNC(=O)COc1cc2cc(Nc3nc(N4CCC(O[C@H]5C[C@H](N6CCC(c7ccc8c(c7Cl)CN(C7CCC(=O)NC7=O)C8=O)CC6)C5)CC4)ncc3Cl)ccc2n(C(C)C)c1=O (some centres unmarked) [Compound 163, 2-({6-[(5-chloro-2-{4-[(1r,3r)-3-{4-[4-chloro-2-(2,6-dioxopiperidin-3-yl)-1-oxo-2,3-dihydro-1H-isoindol-5-yl]piperidin-1-yl}cyclobutoxy]piperidin-1-yl}pyrimidin-4-yl)amino]-2-oxo-1-(propan-2-yl)-1,2-dihydroquinolin-3-yl}oxy)-N-methylacetamide] | 95 |
| CNC(=O)COc1cc2cc(Nc3nc(N4CCC(O[C@H]5C[C@H](N6CCC(c7cc(C)c8c(c7F)CN(C7CCC(=O)NC7=O)C8=O)CC6)C5)CC4)ncc3Cl)ccc2n(C(C)C)c1=O (some centres unmarked) [Compound 208, 2-({6-[(5-chloro-2-{4-[(1r,3r)-3-{4-[2-(2,6-dioxopiperidin-3-yl)-4-fluoro-7-methyl-1-oxo-2,3-dihydro-1H-isoindol-5-yl]piperidin-1-yl}cyclobutoxy]piperidin-1-yl}pyrimidin-4-yl)amino]-2-oxo-1-(propan-2-yl)-1,2-dihydroquinolin-3-yl}oxy)-N-methylacetamide] | 77 |
| CNC(=O)COc1cc2cc(Nc3nc(N4CCC(O[C@H]5C[C@H](N6CC[C@@H](c7ccc8c(c7F)CN([C@H]7CCC(=O)NC7=O)C8=O)C(C)(C)C6)C5)CC4)ncc3Cl)ccc2n(C(C)C)c1=O [Compound 209, 2-({6-[(5-chloro-2-{4-[(1r,3r)-3-[(4R)-4-{2-[(3S)-2,6-dioxopiperidin-3-yl]-4-fluoro-1-oxo-2,3-dihydro-1H-isoindol-5-yl}-3,3-dimethylpiperidin-1-yl]cyclobutoxy]piperiidn-1-yl}pyrimidin-4-yl)amino]-2-oxo-1-(propan-2-yl)-1,2-dihydroquinolin-3-yl}oxy)-N-methylacetamide] | 104 |
| CNC(=O)COc1cc2cc(Nc3nc(N4CCC(O[C@H]5C[C@H](N6CCN(c7ccc8c(c7)CN([C@H]7CCC(=O)NC7=O)C8=O)C(C)(C)C6)C5)CC4)ncc3Cl)ccc2n(C(C)C)c1=O [Compound 211, 2-({6-[(5-chloro-2-{4-[(1r,3r)-3-(4-{2-[(3S)-2,6-dioxopiperidin-3-yl]-1-oxo-2,3-dihydro-1H-isoindol-5-yl}-3,3-dimethylpiperazin-1-yl)cyclobutoxy]piperidin-1-yl}pyrimidin-4-yl)amino]-2-oxo-1-(proapn-2-yl)-1,2-dihydroquinolin-3-yl}oxy)-N-methylacetamide] | 87 |

— patent US20240335444A1, “MODULATORS OF BCL6 PROTEOLYSIS AND ASSOCIATED METHODS OF USE” (Arvinas Operations, Inc., priority 2023, published 2024)
